Read-outs that look alike come from different tables or passages of the source.
Assays:
A2780 cells = test: sTNFα in cell culture medium by ELISA; format: cell-based, human
Protocol: (§1) Concentrated proteins from the medium of two million MCF-7CC, MCF-7TXT or A2780 cells (grown in culture in the absence or presence of various concentrations of paclitaxel or docetaxel) were assessed for levels of sTNFα or sTNFR1 using ELISA kits from R&D Systems™, following the manufacturer's instructions.

MCF-7CC cells [1] = test: sTNFα in cell culture medium by ELISA; format: cell-based, human
Protocol: as §1

[2] = test system: A2780 ovarian tumour cells; settings: cited from earlier work
monocyte TNF levels = settings: gastric cancer patients, chemotherapy; cited from earlier work
MCF-7CC cells [3] = test: Clonogenic assay
Protocol: (§2) Cellular sensitivity to TNFα or docetaxel was assessed using a clonogenic assay as described previously. Docetaxel resistance factors for the cell lines were determined by dividing the IC50 for docetaxel in the taxane-resistant cell lines by the IC50 for MCF-7CC cells. […] (SN-50, 7 μg/ml). A control peptide at the same concentration (SN-50M) was used in the latter experiments to assess the specificity of NF-κB inhibition.

MCF-7TXT cells [4] = test: Clonogenic assay
Protocol: (§3) MCF-7 cells from the American Tissue Culture Collection (catalog number HTB-22) were cultured or selected for survival in increasing doses of docetaxel or paclitaxel as previously described [17;18]. The initial concentrations of docetaxel and paclitaxel used to begin selection (dose 1) were 0.51 and 0.56 nM, respectively. Cells selected to docetaxel concentrations of 1.11 nM (dose 8, MCF-7TXT8), 3.33 nM (dose 9, MCF-7TXT9), 5.00 nM (dose 10, MCF-7TXT10), 15 nM (dose 11, MCF-7TXT11), and 45 nM (dose 12, MCF-7TXT12) were used in this study. Numbers in subscripts of cell line names refer to the maximum docetaxel dose level to which the cells were exposed. The paclitaxel resistant cell line used in this study was selected in an identical manner to a final concentration of 6.64 nM paclitaxel (MCF-7TAX-1 cells; hyphenated number indicates the first cell line selection, not drug dose). […] A2780 ovarian carcinoma cells from the European Collection of Cell Cultures were also selected for resistance to docetaxel in an identical manner (A2780DXL cells), including the creation of “co-cultured control” A2780CC cells.
as §2

MCF-7TAX-1 cells [5] = test: Clonogenic assay; format: cell-based, human
Protocol: as §3, §2

C2C12 myotubes = settings: cited from earlier work
MCF-7TXT cells [6] = test: sTNFα in cell culture medium by ELISA; format: cell-based, human; settings: for sTNFα levels: 50 nM docetaxel
Protocol: as §1

MCF-7TAX-1 cells [7] = test: sTNFα in cell culture medium by ELISA; format: cell-based, human; settings: presence or absence of docetaxel
A2780DXL cells = test: Clonogenic assay; format: cell-based, human; settings: A2780DXL cells at maximally tolerated dose (405 nM)
Protocol: as §3, §2

[8] = test system: NF-κB p65 and p50 subunits; test: NF-κB activity in nuclear extracts (TransAM NF-κB Family ELISA); format: cell-based, human; settings: MCF-7CC and MCF-7TXT cells, 50 nM docetaxel 24 hours; except selection doses >15 nM (dose 11 and 12)
Protocol: MCF-7CC and MCF-7TXT cells were cultured in the presence or absence of 50 nM docetaxel for 24 hours. The activity of the NF-κB p65 and p50 subunits in 10 μg of nuclear extracts was assessed as outlined in the TransAM™ NF-κB Family ELISA kit (Active Motif™, Carlsbad, Calif.). Readings at 450 nm were normalized to the sum of all readings on the plate in order to compare across triplicate experiments.

MCF-7TAX-1 cells [9] = settings: cited from earlier work
[10] = breast cancer patients following docetaxel infusion; cited from earlier work
murine macrophages = settings: cited from earlier work
[11] = test system: serum levels of proinflammatory cytokines, including TNFα; settings: castration-resistant prostate cancer patients, two days after administration; cited from earlier work
MCF-7TXT cells [12] = settings: cited from earlier work

COc1cccc2c1C(=O)c1c(O)c3c(c(O)c1C2=O)C[C@@](O)(C(=O)CO)C[C@@H]3O[C@H]1C[C@H](N)[C@H](O)[C@H](C)O1 [doxorubicin]
TNFα expression (A2780 cells; A2780 ovarian tumour cells, FIG. 1E): induces TNFα expression | TNFα expression (MCF-7CC cells [1]; MCF-7 breast tumour cells, FIG. 1D): induces TNFα expression | TNF alpha production / levels [2]: increased TNF alpha production | monocyte TNF levels (monocyte TNF levels): no effect

CO[C@@]12[C@H](COC(N)=O)C3=C(C(=O)C(C)=C(N)C3=O)N1C[C@@H]1N[C@@H]12 [mitomycin C]
monocyte TNF levels (monocyte TNF levels): no effect

CC[C@]1(O)C[C@@H]2CN(CCc3c([nH]c4ccccc34)[C@@](C(=O)OC)(c3cc4c(cc3OC)N(C)[C@H]3[C@@](O)(C(=O)OC)[C@H](OC(C)=O)[C@]5(CC)C=CCN6CC[C@]43[C@@H]65)C2)C1 [vinblastine]
TNF alpha production / levels [2]: increased TNF alpha production

O=c1[nH]cc(F)c(=O)[nH]1 [5FU]
monocyte TNF levels (monocyte TNF levels): no effect

CC[C@@]1(O)C(=O)OCc2c1cc1n(c2=O)Cc2cc3c(CN(C)C)c(O)ccc3nc2-1 [Topotecan]
TNF alpha production / levels [2]: no effect on TNF alpha levels

C[C@@H]1C[C@@H]([C@H](O)CC2CC(=O)NC(=O)C2)C(=O)[C@@H](C)C1 [cycloheximide]
effect on TNFα cytotoxicity (MCF-7CC cells [3]; cycloheximide 5 μg/mL with 10 ng/mL TNFα, 24 hours): only a small additional effect | effect on TNFα cytotoxicity (MCF-7TXT cells [4]; MCF-7TXT10 cells, cycloheximide 5 μg/mL with 10 ng/mL TNFα, 24 hours): restored TNFα's ability to be cytotoxic

TNFα
colony formation (MCF-7CC cells [3]; TNFα 50 or 100 ng/mL): very strongly reduced | reduction of colony formation (MCF-7TXT cells [4]; MCF-7TXT8 cells, TNFα 10 ng/ml): 66.6±1.7% | colony formation in absence or presence of TNFα (MCF-7TXT cells [4]; MCF-7TXT10 cells, TNFα 10 ng/mL): significant resistance to TNFα | reductions in colony formation (MCF-7TXT cells [4]; MCF-7TXT10 cells, TNFα 50 ng/mL or 100 ng/mL, compared with MCF-7CC): much smaller | colony formation (MCF-7TXT cells [4]; MCF-7TXT12 cells, TNFα 10 ng/mL): increased colony formation | colony formation (MCF-7TAX-1 cells [5]; TNFα 50 or 100 ng/ml, relative to MCF-7TXT10): strong reductions in colony formation | NF-κB activity (C2C12 myotubes): induced NF-κB activity

CC(=O)O[C@@]12CO[C@@H]1C[C@H](O)[C@@]1(C)C(=O)[C@H](O)C3=C(C)[C@@H](OC(=O)[C@H](O)[C@@H](NC(=O)OC(C)(C)C)c4ccccc4)C[C@@](O)([C@@H](OC(=O)c4ccccc4)[C@H]21)C3(C)C [docetaxel]
sTNFα levels secreted (A2780 cells; A2780CC cells, 0.1 to 1 nM docetaxel, versus untreated): not significantly changed | TNFα produced in response to docetaxel (A2780 cells; A2780 cells, compared with MCF-7CC cells, 48 hours): even greater amounts | TNFα production and sTNFα release (A2780 cells; ovarian tumor cells, docetaxel 3 to 45 nM): can stimulate TNFα production and sTNFα release | sTNFα levels in media (MCF-7CC cells [1]; MCF-7CC cells, 3 nM docetaxel, 48 hours): significantly elevated | sTNFα secretion (MCF-7CC cells [1]; MCF-7CC cells, 50 nM docetaxel versus untreated): no significant difference | sTNFα levels secreted (MCF-7CC cells [1]; MCF-7CC cells, 0.1 to 1 nM docetaxel, versus untreated): not significantly changed | TNFα production and sTNFα release (MCF-7CC cells [1]; breast tumor cells, docetaxel 3 to 45 nM): can stimulate TNFα production and sTNFα release | sTNFα secretion (MCF-7TXT cells [6]; MCF-7TXT8 cells, 50 nM docetaxel versus untreated): no significant difference | further increase of sTNFα production (MCF-7TXT cells [6]; MCF-7TXT9 cells, 50 nM docetaxel versus untreated): 1.62 fold | further increase of sTNFα production (MCF-7TXT cells [6]; MCF-7TXT10 cells, 50 nM docetaxel versus untreated): 1.27 fold | sTNFα levels (MCF-7TXT cells [6]; MCF-7TXT11 cells): returned to basal levels | sTNFα levels (MCF-7TXT cells [6]; MCF-7TXT12 cells): returned to basal levels | sTNFα levels versus MCF-7CC (MCF-7TAX-1 cells [7]): No differences | docetaxel sensitivity (MCF-7TXT cells [4]; MCF-7TXT8 cells (selected to 1.1 nM docetaxel) versus MCF-7CC): did not affect docetaxel sensitivity | resistance to docetaxel (IC50 ratio to MCF-7CC) (MCF-7TXT cells [4]; MCF-7TXT9 cells (selected to 3.33 nM docetaxel)): 11.4 fold | docetaxel resistance factor (MCF-7TXT cells [4]; MCF-7TXT10 cells (selected to 5 nM docetaxel)): 16.6 | docetaxel resistance factor (MCF-7TXT cells [4]; MCF-7TXT11 cells (selected to 15 nM docetaxel)): 32.8 | docetaxel resistance factor (MCF-7TXT cells [4]; MCF-7TXT12 cells (selected to 45 nM docetaxel)): 184 | resistance to docetaxel (A2780DXL cells): ~4000 fold | p65 and p50 subunit binding to the NF-κB sequence [8]: even higher levels | cross resistance to docetaxel (MCF-7TAX-1 cells [9]): 46 fold | plasma levels of docetaxel [10]: 10 to 75 nM | TNFα expression (murine macrophages; same study): no effect | serum levels of proinflammatory cytokines, including TNFα [11]: increased

N.N.[Cl][Pt][Cl] [cisplatin]
TNF alpha production / levels [2]: increased TNF alpha production

CC(=O)O[C@H]1C(=O)[C@@]2(C)[C@H]([C@H](OC(=O)c3ccccc3)[C@]3(O)C[C@H](OC(=O)[C@H](O)[C@@H](NC(=O)c4ccccc4)c4ccccc4)C(C)=C1C3(C)C)[C@]1(OC(C)=O)CO[C@@H]1C[C@@H]2O [paclitaxel]
sTNFα production (A2780 cells; A2780 cells, paclitaxel at concentrations 15 nM, compared with docetaxel): even higher levels | sTNFα release (A2780 cells; ovarian tumor cells, paclitaxel 5 and 15 nM): dramatically increase sTNFα release | paclitaxel resistance factor (MCF-7TAX-1 cells [5]; maximally tolerated dose of paclitaxel): 42 | cross-resistance to paclitaxel, resistance factor (MCF-7TXT cells [12]; selection dose 11): 148 | cross-resistance to paclitaxel, resistance factor (MCF-7TXT cells [12]; selection dose 12): 251 | sTNFα release (murine macrophages; levels unachievable in patients): increase sTNFα release | TNFα production (C2C12 myotubes; 4 hours following treatment, paclitaxel 10 nM to 10 μM): did not induce increased TNFα production | NF-κB activity (C2C12 myotubes): induced NF-κB activity

— patent publication US20140274927A1, “TNF-Related Biomarkers For Assessing Cancer Cell Response To Treatment With Taxane And/Or Anthracycline Drugs” (priority 2013, published 2014)
